This is an account of results in a melting point compilation (Tetko et al.; mined from patent text by program, amines drawn as free bases though some values may be those of a salt).

Turning to `COC(=O)Nc1nc(C)cc(OC)n1`, the melting point was 89 to 92.5 °C.
Next, `CCCCc1nc2ccccn2c(=O)c1-c1ccc(OS(=O)(=O)C(F)(F)F)cc1`: 106 to 108 °C; `COC(=O)c1nc(N)ccc1Oc1nc(OC)cc(OC)n1`: 67 to 69 °C.
Next, `CC(C)=C(C=O)CC(=O)O`: 102 °C; `C=C(C(=O)O)c1ccc(OC)c(OC)c1`: 128 °C; `CC(=O)c1ccc(CC(C)OS(=O)(=O)c2ccc(C)cc2)s1` (racemic): 101 to 103 °C.
Next, `CCOc1cc2c(cc1OC)C(c1ccc(C(=O)N(C(C)C)C(C)C)cc1)=N[C@@H]1CCSC[C@H]21`: 84 to 89 °C; `Cn1cc(C#N)c([N+](=O)[O-])n1`: 85 to 87 °C.
`COC(=O)c1sc(-c2ccccc2)c(O)c1O`: the melting point was in the range of 143 to 144 °C.
For `CC(=O)N1CCc2ccc(C(=O)c3ccccc3)cc2C1` the value was 110 to 113 °C; for `Cc1cc(-c2ccc(S(C)(=O)=O)cc2)n(-c2ccc(-c3ccco3)cc2)c1`, 133 to 135 °C.
For `NCCNc1ccc([N+](=O)[O-])cc1Cl` the value was 116 °C; for `CC(C(O)CCc1ccc(OC(F)(F)F)cc1)n1cncn1` (centres undefined), 69 °C; for `CCCCC1C=C(N)c2ncccc2N1CC(C)(C)O` (centres undefined), 177 to 179 °C.
For `COc1ccnc(CCc2nc3cc(-c4ccc(S(=O)(=O)N5CCN(c6ccc(C)cc6C)CC5)cc4)cnc3[nH]2)c1` the value was 208 to 209 °C; for `Nc1cc(S)c(Cl)cc1F`, 64.5 to 66 °C; for `CCN=C(Cc1ccccc1)N1CC2C(=O)CCC(c3ccccc3)(c3ccccc3)C2C1` (centres undefined), 108 °C.
For `CCCCCCCC(=O)N(C)Cc1cccc(-c2ccc(C=CC(=O)O)o2)c1`, the melting point was in the range of 96 to 98 °C.
For `N#CCC(=O)c1nn(-c2ccccc2)c2c1COc1c(CN3CCOCC3)cc(F)cc1-2` the value was 187 to 189 °C; for `CN(C)c1cc(CC#N)cc(Cc2nc3c(F)c(F)cc(F)c3s2)c1`, 99 to 100 °C.
Next, `CCOC(=O)C(=NO)c1ccc(Br)cc1`: 163 to 164 °C; `CCOC1(NC(=O)c2ccccc2)CC1`: 108 to 109 °C.
For `COc1ncnc2c(Cl)c(NC3=NCCN3)ccc12` the value was 238 to 239 °C; for `CC(=O)NC[C@H]1CN(c2ccc(C3=CCCCO3)c(F)c2)C(=O)O1`, 161 to 163 °C; for `Cn1cc2c([C@@H]3C[C@H]3CNC(=O)c3ccc(Br)cc3)cccc2n1`, 140 to 142 °C.
`N#Cc1c(Br)c(C(F)(F)F)n(COC(=O)C2CC2)c1-c1ccc(Cl)cc1` had a melting point of 122 to 123 °C.
For `CC(C)CCCC(C)C1CCC2C3CC=C4CC(OC(=O)NCC(=O)N(CCCl)CCCl)CCC4(C)C3CCC12C` (centres undefined) the value was 98 to 100 °C; for `O=C(CBr)CS(=O)(=O)C(c1ccc(Cl)cc1)c1ccc(Cl)cc1`, 122 to 123 °C.
Next, `CC(=O)Nc1cccc(Nc2ncc3ccc(-c4cccn4CCC#N)n3n2)c1`: 131 to 139 °C.
For `COc1cc(OC)cc(-c2ncoc2-c2ccc(OC(F)F)c(N)c2)c1` the value was 105 °C; for `CC(=O)N(C)CCCC(=O)OC1c2ccccc2C(=O)N1c1ccc2ccc(Cl)nc2n1` (centres undefined), 170 °C; for `Cc1c(N)cc(C(C)(C)C)cc1N`, 97.3 °C.
Turning to `N#Cc1cn(-c2ccc(Cl)cc2)c(=O)[nH]c1=O`, the melting point lay within 236 to 239 °C.
Next, `CC(C)[C@H]1CC[C@H](Nc2ncc(Cc3ccc(O)nc3)c3ncccc23)CC1`: 232 to 235 °C; `C=C(Cc1ccccc1)C(=O)O`: 61 to 62 °C.
Next, `O=C(c1cccnc1)N1CCC(c2ccc(F)cc2)=N1`: 128 to 130 °C; `CCCCCn1c2ccc(C(=O)NC34CC5CC(CC(C5)C3)C4)cc2c2ccc(OC)cc21`: 141 to 142 °C; `CCCCc1oc2ccccc2c1C(=O)Nc1ccc(-c2ccc(OCC#N)cc2)cc1`: 143 to 144 °C.
For `O=C1SC(Cc2ccc(OCCON=Cc3ccc4ccccc4n3)cc2)C(=O)N1C(c1ccccc1)(c1ccccc1)c1ccccc1` (centres undefined) the value was 127 to 130 °C.
The compound `Cc1nnc(-c2ccc3occ(-c4ccc(S(C)=O)c(F)c4)c3c2)o1` (centres undefined) had a melting point of 168 to 169 °C.
Next, `Nc1nc(NCC=Cc2ccccc2)nc(-c2cc(Cl)ccc2Cl)n1`: 198 to 199 °C.
In the case of `CN1CCC(C(=O)Nc2cccc3nc(NC4CCc5ccccc54)ccc23)CC1` (centres undefined), the melting point was 197 °C.
Next, `Cc1ccc(-n2c(=O)c(N)nc3cccnc32)cc1`: greater than 250 °C; `Cc1ccc(S(=O)(=O)N2[C@@H](CCn3cccn3)CC[C@H]2c2ccc(F)cc2)cc1` (racemic): 121 °C; `CN=C(NC)Nc1ccccc1-c1ccccc1`: 101 to 102 °C.
Next, `CCOC(=O)c1cnn2c1c(=S)[nH]c1ccccc12`: 270 to 272 °C.
For the compound `O=c1[nH]c2ccccc2n1CCCN1CCC(OC(c2ccccc2)c2ccccc2)CC1`, the melting point came to 149 °C.
For the compound `O=S(=O)(N[C@H]1CC[C@H](CCN2CCN(c3nccc4c3CCO4)CC2)CC1)c1ccccc1`, the melting point worked out at 168 °C.
Consider `C[C@H]1C(=O)N[C@@H](Cc2c[nH]c3ccccc23)C(=O)N1OCc1ccccc1`, for which the melting point is 172 to 174 °C.
`CCCCOCCCNC(c1ccccc1)C(O)c1ccccc1` (centres undefined): the melting point is 82 to 84 °C.
For `CN(CCCCCCNC(=O)NCCCOc1cccc(CN2CCCCC2)c1)CCN(Cc1ccc(F)cc1)c1ccccn1`, the melting point lay in the range of 65 to 69 °C.
For the compound `CCCCNc1c(C(C)=O)cnc2onc(C)c12`, the melting point fell in the range of 116 to 117 °C.
Next, `COc1ncccc1Nc1c(NC(NC(=O)c2cccc(C)c2)C(C)(C)Cc2ccccc2)c(=O)c1=O` (centres undefined): 233 to 235 °C; `CC(=O)OC1N=C(c2ccccc2Cl)c2c(cn(C)c2C)N(C)C1=O` (centres undefined): 202 to 204 °C; `COc1ccc(C(=O)c2cccc(N)c2)cc1OC`: 157 to 175 °C.
For `CC(C(=O)O)c1cccc(C(=O)c2ccccc2)c1[N+](=O)[O-]` (centres undefined) the value was 177 to 179 °C; for `Cc1c(C(F)(F)F)nn(C(C)C)c1O`, 150 to 153 °C.
Next, `CC(C)(C)OC(=O)N1CCOC[C@H]1CC(=O)O`: 82 °C; `O=C1NCCN1c1ccc(S(=O)(=O)Nc2ccc(C3CCCCC3)cc2)cc1`: 256 to 257 °C.
Compound `CC(C)OC(=O)C1CCCN1S(=O)(=O)c1ccc(N2CCC(=O)CC2)cc1` (centres undefined) registered a melting point of 97 to 101 °C.
`CS(=O)(=O)C(=C1CN(C(c2ccccc2)c2ccccc2)C1)c1ccc(Cl)cc1Cl` had a melting point of 165 °C.
`COC(OC)C(CC(=O)O)C(C)(C)S(=O)(=O)c1ccc(C)cc1` (centres undefined) showed a melting point of 144 °C.
For `CCCOCCOc1ccc(-c2ccc3c(c2)C=C(C(=O)O)CCN3CCCOCC)cc1` the value was 98 to 100 °C.
Consider `Fc1cccc(F)c1-c1ccc2ncccc2c1`, for which the melting point lay in the range of 112 to 113 °C.
For `Cc1c(-c2ccncc2)[nH]c2c1C(=O)CC(c1ccccc1)C2` (centres undefined) the value was 256 to 257 °C; for `COc1cc(N)c(Cl)cc1C(=O)NCC1CCN(CCCCCNC(=O)c2cccc(Cl)c2)CC1`, 139 to 142 °C; for `CCCCCCC(C(=O)O)n1ccc2cc(-c3ccccc3C(=O)O)ccc21` (centres undefined), 115 to 120 °C.
Next, `COC(=O)c1cc(F)c2ncc(C(=O)NCc3ccc(Cl)cc3)c(O)c2c1`: 288 to 290 °C; `COc1c(Cl)ccc(-c2cc(N)c(Cl)c(C(=O)NOCc3nnsc3Cl)n2)c1F`: 179 to 181 °C; `C=CCc1cc(C(=O)OC)ccc1O`: 78 to 82 °C.
Next, `OCc1nn(-c2ccc(Br)cc2)c2c1CCCC2`: 126 to 127 °C; `Cc1ccc(S(=O)(=O)OCC2CCCc3scnc32)cc1` (centres undefined): 64 to 65 °C; `CN1CCN(c2cc(NC(=O)c3ccc(-c4ccncc4)cc3)ccc2Cl)CC1`: 218 to 219 °C.
Take `Cc1cccc2c1CCn1ncnc1C2=C1CCN(C)CC1`: the melting point was determined as 150 °C.
Next, `Cc1cccnc1C(O)c1ccc(N)cc1` (centres undefined): 153 to 154 °C.
For `O=C(CN1C(=O)C(c2ccccc2)c2ccccc21)NCc1ccccc1` (centres undefined), the melting point was in the range of 182 to 183 °C.
Next, `COc1cccc(-n2c(-c3cc(-c4ccc(S(C)(=O)=O)cc4)c(N4CCOCC4)s3)nc3ccccc3c2=O)c1`: 203 to 205 °C.
For `CC(=O)NC[C@H]1CN(c2ccc(N3CCC4(CCOCCO4)CC3)c(F)c2)C(=O)O1` the value was 182 to 184 °C; for `O=Cc1nn(-c2ccc([N+](=O)[O-])cc2)c2c1CCC2`, 209 to 210 °C.
On to `CC(NC(=O)Cc1cc(F)cc(F)c1)C(=O)NC1(c2ccccc2)NC(=O)Cc2ccccc21` (centres undefined), for which the melting point is 200 to 205 °C.
For `CC(CNC(=O)N(CCN(C)C(=O)OC(C)(C)C)CCC12CC3CC(CC(C3)C1)C2)Cc1ccncc1` (single isomer, unassigned; (+)) the value was 123 to 124 °C.
Take `O=C1NCCC[C@@H]1NS(=O)(=O)c1cc(F)cc(F)c1`: the melting point was 170 to 174 °C.
Next, `C=C1CCCC2CCC3C(CCC4(C)C3C(C=O)C35OCCOC43OCCO5)C12C` (centres undefined): 192 °C; `CN1CC(C(=O)N(C)C(Cc2ccc(Cl)cc2)Cc2ccc(Cl)cc2)=C(O)C1=O`: 152 to 154 °C; `Nc1cccc(OCc2ccc3ccccc3n2)c1`: 98 to 99 °C.
Next, `CCCn1cc2c(C3C(=O)Nc4ccc(C#N)cc43)nc(Cl)nc2n1` (centres undefined): greater than 300 °C; `CC(NCC(O)c1cc(Cl)c(N)c(Cl)c1)C1CCCCC1` (centres undefined): 106 to 108 °C.
Next, `COc1ccc(-c2cnc3cc4cn(CCOC(C)=O)nc4cc3n2)cc1F`: 175 to 178 °C; `COc1cc(OCC2CCCO2)ccc1/C=C/C(=O)CC(=O)/C=C/c1ccc2cc[nH]c2c1` (centres undefined): 159 to 161 °C.
